Patent US20070128217A1 (priority 2003, published 2007)

Experiments:
[1] = test system: rabbit serum obtained by immunizing a rabbit with the SARS-CoV strain Frankfurt 1; type: binding; set-up: Binding of a rabbit serum to linear peptides / Binding of a rabbit serum to looped peptides / Rabbit serum linear peptides / Rabbit serum looped peptides / Binding of a rabbit serum to linear peptides of protein N of SARS-CoV Urbani (Rabbit serum linear peptides) / Binding of a rabbit serum to looped/cyclic peptides of protein N of SARS-CoV Urbani (Rabbit serum looped peptides): unit not given here
[2] = test system: control sera (pooled serum of ten healthy LUMC hospital workers; commercial negative donor pooled serum from the Dutch bloodbank); type: binding, human; set-up: Binding of Control serum LUMC to linear peptides / Binding of Control serum Blood-bank to linear peptides / Binding of Control serum LUMC to looped peptides / Binding of Control Serum Blood-Bank to Looped peptides / Binding of Control serum LUMC to linear peptides of the protein M of SARS-CoV Urbani / Binding of Control serum Blood-bank to linear peptides of the protein M of SARS-CoV Urbani / Binding of Control serum LUMC to looped peptides of the protein M of SARS-CoV Urbani / Binding of Control Serum Blood-Bank to Looped peptides of the protein M of SARS-CoV Urbani: unit not given here
[3] = test system: antibodies in sera from SARS patients (sera 1a, 1b, 2, 6, 37, 62, London, SARS-yellow, SARS-green); type: binding, human; set-up: Binding of serum 6 to linear peptides of protein X1 of SARS-CoV Urbani / Binding of serum 37 to linear peptides of protein X1 of SARS-CoV Urbani / Binding of serum 6 to looped/cyclic peptide (PEPSCAN-ELISA) / Binding of serum 37 to looped/cyclic peptide (PEPSCAN-ELISA) / Binding of serum 37 to looped/cyclic peptides of protein X1 of SARS-CoV Urbani / Binding of serum 6 to linear peptides of protein X2 / Binding of serum 37 to linear peptides of protein X2 / Binding of serum 37 to looped/cyclic peptides of protein X2 of SARS-CoV Urbani / Binding of serum 6 to linear peptides of protein M of SARS-CoV Urbani / Binding of serum 37 to linear peptides of protein M of SARS-CoV Urbani / Binding of serum 6 to looped/cyclic peptides of protein M of SARS-CoV Urbani / Binding of serum 37 to looped/cyclic peptides of protein M of SARS-CoV Urbani / Binding of serum 6 to linear peptides of protein X3 of SARS-CoV Urbani / Binding of serum 37 to linear peptides of protein X3 of SARS-CoV Urbani / Binding of serum 37 to looped/cyclic peptides of protein X3 of SARS-CoV Urbani / Binding of serum 6 to linear peptides of protein X4 of SARS-CoV Urbani / Binding of serum 37 to linear peptides of protein X4 of SARS-CoV Urbani / Binding of serum 37 to looped/cyclic peptides of protein X4 of SARS-CoV Urbani / Binding of serum 6 to linear peptides of protein X5 of SARS-CoV Urbani / Binding of serum 37 to linear peptides of protein X5 of SARS-CoV Urbani / Binding of serum 37 to looped/cyclic peptides of protein X5 of SARS-CoV Urbani / Binding of serum 6 to linear peptides of protein N of SARS-CoV Urbani / Binding of serum 37 to linear peptides of protein N of SARS-CoV Urbani / Binding of serum 6 to linear peptide (PEPSCAN-ELISA) / Binding of serum 1a to looped/cyclic peptides of protein N of SARS-CoV Urbani / Binding of serum 1b to looped/cyclic peptides of protein N of SARS-CoV Urbani / Binding of serum 2 to looped/cyclic peptides of protein N of SARS-CoV Urbani / Binding of serum 6 to looped/cyclic peptides of protein N of SARS-CoV Urbani / Binding of serum 37 to looped/cyclic peptides of protein N of SARS-CoV Urbani / Binding of serum 62 to looped/cyclic peptides of protein N of SARS-CoV Urbani / Binding of serum London to looped/cyclic peptides of protein N of SARS-CoV Urbani / Binding of serum SARS-green to looped/cyclic peptides of protein N of SARS-CoV Urbani: unit not given here

Sequence: AWLCALGKVLPFHRW
- Rabbit serum linear peptides [1]: 0.8
- Rabbit serum looped peptides [1]: 0.6
- Binding of Control Serum Blood-Bank to Looped peptides [2]: 0.4
- Binding of Control serum Blood-bank to linear peptides [2]: 0.9
- Binding of Control serum LUMC to linear peptides [2]: 0.6
- Binding of Control serum LUMC to looped peptides [2]: 0.5
- Binding of serum 1a to linear peptides of protein X5 of SARS-CoV Urbani [3]: 0.8
- Binding of serum 1a to looped/cyclic peptides of protein X5 of SARS-CoV Urbani [3]: 0.4
- Binding of serum 1b to linear peptides of protein X5 of SARS-CoV Urbani [3]: 0.6
- Binding of serum 1b to looped/cyclic peptides of protein X5 of SARS-CoV Urbani [3]: 0.3
- Binding of serum 2 to linear peptides of protein X5 of SARS-CoV Urbani [3]: 0.8
- Binding of serum 2 to looped/cyclic peptides of protein X5 of SARS-CoV Urbani [3]: 0.5
- Binding of serum 6 to linear peptides of protein X5 of SARS-CoV Urbani [3]: 0.6
- Binding of serum 6 to looped/cyclic peptides of protein X5 of SARS-CoV Urbani [3]: 0.4
- Binding of serum 37 to linear peptides of protein X5 of SARS-CoV Urbani [3]: 0.8
- Binding of serum 37 to looped/cyclic peptides of protein X5 of SARS-CoV Urbani [3]: 0.5
- Binding of serum 62 to linear peptides of protein X5 of SARS-CoV Urbani [3]: 0.9
- Binding of serum 62 to looped/cyclic peptides of protein X5 of SARS-CoV Urbani [3]: 0.7
- Binding of serum London to linear peptides of protein X5 of SARS-CoV Urbani [3]: 0.8
- Binding of serum London to looped/cyclic peptides of protein X5 of SARS-CoV Urbani [3]: 0.2
- Binding of serum SARS-green to linear peptides of protein X5 of SARS-CoV Urbani [3]: 0.6
- Binding of serum SARS-green to looped/cyclic peptides of protein X5 of SARS-CoV Urbani [3]: 0.5
- Binding of serum SARS-yellow to linear peptides of protein X5 of SARS-CoV Urbani [3]: 0.2
- Binding of serum SARS-yellow to looped/cyclic peptides of protein X5 of SARS-CoV Urbani [3]: 0.5

Sequence: INACRIIMRCWLCWK
- Recognition of the peptide by the rabbit serum [1]: recognized
- Binding of Control Serum Blood-Bank to Looped peptides [2]: 0.7
- Binding of Control serum Blood-bank to linear peptides [2]: 0.9
- Binding of Control serum LUMC to linear peptides [2]: 0.4
- Binding of Control serum LUMC to looped peptides [2]: 0.6
- Binding of serum 1a to looped/cyclic peptide (PEPSCAN-ELISA) [3]: 0.6
- Binding of serum 1b to looped/cyclic peptide (PEPSCAN-ELISA) [3]: 0.4
- Binding of serum 2 to looped/cyclic peptide (PEPSCAN-ELISA) [3]: 0.6
- Binding of serum 6 to looped/cyclic peptide (PEPSCAN-ELISA) [3]: 0.6
- Binding of serum 37 to looped/cyclic peptide (PEPSCAN-ELISA) [3]: 0.5
- Binding of serum 62 to looped/cyclic peptide (PEPSCAN-ELISA) [3]: 0.6
- Binding of serum London to looped/cyclic peptide (PEPSCAN-ELISA) [3]: 0.4
- Binding of serum SARS-green to looped/cyclic peptide (PEPSCAN-ELISA) [3]: 0.3
- Binding of serum SARS-yellow to looped/cyclic peptide (PEPSCAN-ELISA) [3]: 0.5
- Recognition of the peptide by sera of SARS-CoV infected individuals, and form (linear, looped/cyclic) in which it is recognized [3]: recognized in linear form

Sequence: VPLRGTIVTRPLMES
- Rabbit serum linear peptides [1]: 0.1
- Rabbit serum looped peptides [1]: 0.6
- Binding of Control Serum Blood-Bank to Looped peptides of the protein M of SARS-CoV Urbani [2]: 0.6
- Binding of Control serum Blood-bank to linear peptides of the protein M of SARS-CoV Urbani [2]: 0.9
- Binding of Control serum LUMC to linear peptides of the protein M of SARS-CoV Urbani [2]: 0.6
- Binding of Control serum LUMC to looped peptides of the protein M of SARS-CoV Urbani [2]: 0.7
- Binding of serum 1a to linear peptides of protein M of SARS-CoV Urbani [3]: 0.7
- Binding of serum 1b to linear peptides of protein M of SARS-CoV Urbani [3]: 0.6
- Binding of serum 2 to linear peptides of protein M of SARS-CoV Urbani [3]: 0.7
- Binding of serum 6 to linear peptides of protein M of SARS-CoV Urbani [3]: 0.4
- Binding of serum 37 to linear peptides of protein M of SARS-CoV Urbani [3]: 0.6
- Binding of serum 62 to linear peptides of protein M of SARS-CoV Urbani [3]: 0.5
- Binding of serum London to linear peptides of protein M of SARS-CoV Urbani [3]: 0.4
- Binding of serum SARS-green to linear peptides of protein M of SARS-CoV Urbani [3]: 0.5
- Binding of serum SARS-yellow to linear peptides of protein M of SARS-CoV Urbani [3]: 0.4
- Recognition of the peptide by sera of SARS-CoV infected individuals, and form (linear, looped/cyclic) in which it is recognized [3]: recognized in looped/cyclic form
